Laboratory results from US10369138B2, “Monobactam organic compounds for the treatment of bacterial infections” (Novartis AG, priority 2014, dated 2019).
Converted amounts (≈) assume the structure as drawn.

What was measured:
E. coli containing KPC-2 = assay: MIC by broth microdilution, E. coli containing KPC-2 (Ec KPC2 Iso); format: cell-based; settings: Escherichia coli, read-out: Ec KPC2 Iso (MIC), E. coli containing KPC-2 (carbapenemase from Klebsiella pneumoniae)
Procedure, shortened: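 Host E. coli BW25113 pspB carrying multicopy pBAD18-kan plasmid with constitutive TEM-promoter KPC-2 expression (periplasmic signal sequence); broth microdilution per CLSI in cation-adjusted Mueller-Hinton broth, inoculum ~5×10^5 CFU/mL, compounds twofold serially diluted from DMSO masters (10% DMSO in dilution series added).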

E. coli strain 25922 = assay: MIC by broth microdilution, E. coli strain 25922; format: cell-based; settings: Escherichia coli, 25922, E. coli strain 25922; read-out: Ec 25922 (MIC)
Procedure, shortened: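 CLSI broth microdilution in cation-adjusted Mueller-Hinton broth, inoculum about 5×10^5 CFU/mL, 10% DMSO from the diluted series, 20 h at 35-37° C. MIC is the lowest concentration preventing visible growth, read by eye and at 600 nm.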

Cc1c[n+](C)ccc1-c1cn(C[C@@H]2[C@H](NC(=O)/C(=N\OC(C)(C)C(=O)O)c3csc(N)n3)C(=O)N2S(=O)(=O)O)nn1 [Example 49, (2R,3S)-3-((Z)-2-(2-aminothiazol-4-yl)-2-(((2-carboxypropan-2-yl)oxy)imino)acetamido)-2-((4-(1,3-dimethylpyridin-1-ium-4-yl)-1H-1,2,3-triazol-1-yl)methyl)-4-oxoazetidine-1-sulfonate]
MIC (E. coli containing KPC-2): 16 µg/mL
MIC (E. coli strain 25922): 2 µg/mL

CC(C)(O/N=C(\C(=O)N[C@@H]1C(=O)N(S(=O)(=O)O)[C@@H]1Cn1ccnn1)c1csc(N)n1)C(=O)O [Example 50, 2-(((Z)-(2-(((2R,3S)-2-((1H-1,2,3-triazol-1-yl)methyl)-4-oxo-1-sulfoazetidin-3-yl)amino)-1-(2-aminothiazol-4-yl)-2-oxoethylidene)amino)oxy)-2-methylpropanoic acid]
MIC (E. coli containing KPC-2): 2.8 µg/mL (≈ 5.57 µM)
MIC (E. coli strain 25922): 2 µg/mL (≈ 3.98 µM)

CC(C)(O/N=C(\C(=O)N[C@@H]1C(=O)N(S(=O)(=O)O)[C@@H]1Cn1cc(C(=O)O)nn1)c1csc(N)n1)C(=O)O [Example 51, 1-(((2R,3S)-3-((Z)-2-(2-aminothiazol-4-yl)-2-(((2-carboxypropan-2-yl)oxy)imino)acetamido)-4-oxo-1-sulfoazetidin-2-yl)methyl)-1H-1,2,3-triazole-4-carboxylic acid]
MIC (E. coli containing KPC-2): 16 µg/mL (≈ 29.3 µM)
MIC (E. coli strain 25922): > 64 µg/mL

CC(C)(O/N=C(\C(=O)N[C@@H]1C(=O)N(S(=O)(=O)O)[C@@H]1Cn1ncc(CN)n1)c1csc(N)n1)C(=O)O [Example 52, 2-(((Z)-(2-(((2R,3S)-2-((4-(aminomethyl)-2H-1,2,3-triazol-2-yl)methyl)-4-oxo-1-sulfoazetidin-3-yl)amino)-1-(2-aminothiazol-4-yl)-2-oxoethylidene)amino)oxy)-2-methylpropanoic acid]
MIC (E. coli containing KPC-2): 1 µg/mL (≈ 1.88 µM)
MIC (E. coli strain 25922): 0.5 µg/mL (≈ 0.941 µM)

CC(C)(O/N=C(\C(=O)N[C@@H]1C(=O)N(S(=O)(=O)O)[C@@H]1Cn1ncc(CNC(=N)N)n1)c1csc(N)n1)C(=O)O [Example 53, 2-(((Z)-(1-(2-aminothiazol-4-yl)-2-(((2R,3S)-2-((4-(guanidinomethyl)-2H-1,2,3-triazol-2-yl)methyl)-4-oxo-1-sulfoazetidin-3-yl)amino)-2-oxoethylidene)amino)oxy)-2-methylpropanoic acid]
MIC (E. coli containing KPC-2): 1 µg/mL (≈ 1.74 µM)
MIC (E. coli strain 25922): 1 µg/mL (≈ 1.74 µM)

CC(C)(O/N=C(\C(=O)N[C@@H]1C(=O)N(S(=O)(=O)O)[C@@H]1Cn1nccn1)c1csc(N)n1)C(=O)O [Example 54, 2-(((Z)-(2-(((2R,3S)-2-((2H-1,2,3-triazol-2-yl)methyl)-4-oxo-1-sulfoazetidin-3-yl)amino)-1-(2-aminothiazol-4-yl)-2-oxoethylidene)amino)oxy)-2-methylpropanoic acid]
MIC (E. coli containing KPC-2): 1 µg/mL (≈ 1.99 µM)
MIC (E. coli strain 25922): 2 µg/mL (≈ 3.98 µM)

Cc1cnn(C[C@@H]2[C@H](NC(=O)/C(=N\OC(C)(C)C(=O)O)c3csc(N)n3)C(=O)N2S(=O)(=O)O)n1 [Example 55, 2-(((Z)-(1-(2-aminothiazol-4-yl)-2-(((2R,3S)-2-((4-methyl-2H-1,2,3-triazol-2-yl)methyl)-4-oxo-1-sulfoazetidin-3-yl)amino)-2-oxoethylidene)amino)oxy)-2-methylpropanoic acid]
MIC (E. coli containing KPC-2): 4 µg/mL (≈ 7.74 µM)
MIC (E. coli strain 25922): 16 µg/mL (≈ 31 µM)

CC(C)(O/N=C(\C(=O)N[C@@H]1C(=O)N(S(=O)(=O)O)[C@@H]1Cn1cnnc1)c1csc(N)n1)C(=O)O [Example 56, 2-(((Z)-(2-(((2R,3S)-2-((4H-1,2,4-triazol-4-yl)methyl)-4-oxo-1-sulfoazetidin-3-yl)amino)-1-(2-aminothiazol-4-yl)-2-oxoethylidene)amino)oxy)-2-methylpropanoic acid]
MIC (E. coli containing KPC-2): 16 µg/mL (≈ 31.8 µM)
MIC (E. coli strain 25922): 4 µg/mL (≈ 7.96 µM)

CC(C)(O/N=C(\C(=O)N[C@@H]1C(=O)N(S(=O)(=O)O)[C@@H]1CN1C[C@@H](CN)OC1=O)c1csc(N)n1)C(=O)O [Example 57, 2-(((Z)-(2-(((2R,3S)-2-(((R)-5-(aminomethyl)-2-oxooxazolidin-3-yl)methyl)-4-oxo-1-sulfoazetidin-3-yl)amino)-1-(2-aminothiazol-4-yl)-2-oxoethylidene)amino)oxy)-2-methylpropanoic acid]
MIC (E. coli containing KPC-2): 1 µg/mL (≈ 1.82 µM)
MIC (E. coli strain 25922): 0.5 µg/mL (≈ 0.91 µM)

CC(C)(O/N=C(\C(=O)N[C@@H]1C(=O)N(S(=O)(=O)O)[C@@H]1CN1C[C@H](CN)OC1=O)c1csc(N)n1)C(=O)O [Example 58, 2-(((Z)-(2-(((2R,3S)-2-(((S)-5-(aminomethyl)-2-oxooxazolidin-3-yl)methyl)-4-oxo-1-sulfoazetidin-3-yl)amino)-1-(2-aminothiazol-4-yl)-2-oxoethylidene)amino)oxy)-2-methylpropanoic acid]
MIC (E. coli containing KPC-2): 1 µg/mL (≈ 1.82 µM)
MIC (E. coli strain 25922): 2 µg/mL (≈ 3.64 µM)

CC(C)(O/N=C(\C(=O)N[C@@H]1C(=O)N(S(=O)(=O)O)[C@@H]1CN1C[C@H](CNC(=N)N)OC1=O)c1csc(N)n1)C(=O)O [Example 59, 2-(((Z)-(1-(2-aminothiazol-4-yl)-2-(((2R,3S)-2-(((S)-5-(guanidinomethyl)-2-oxooxazolidin-3-yl)methyl)-4-oxo-1-sulfoazetidin-3-yl)amino)-2-oxoethylidene)amino)oxy)-2-methylpropanoic acid]
MIC (E. coli containing KPC-2): 16 µg/mL (≈ 27 µM)
MIC (E. coli strain 25922): 16 µg/mL (≈ 27 µM)

Cc1ncn(C[C@@H]2[C@H](NC(=O)/C(=N\OC(C)(C)C(=O)O)c3csc(N)n3)C(=O)N2S(=O)(=O)O)n1 [Example 60, 2-(((Z)-(1-(2-aminothiazol-4-yl)-2-(((2R,3S)-2-((3-methyl-1H-1,2,4-triazol-1-yl)methyl)-4-oxo-1-sulfoazetidin-3-yl)amino)-2-oxoethylidene)amino)oxy)-2-methylpropanoic acid]
MIC (E. coli containing KPC-2): 8 µg/mL (≈ 15.5 µM)
MIC (E. coli strain 25922): 8 µg/mL (≈ 15.5 µM)

Cc1ncnn1C[C@@H]1[C@H](NC(=O)/C(=N\OC(C)(C)C(=O)O)c2csc(N)n2)C(=O)N1S(=O)(=O)O [Example 61, 2-(((Z)-(1-(2-aminothiazol-4-yl)-2-(((2R,3S)-2-((5-methyl-1H-1,2,4-triazol-1-yl)methyl)-4-oxo-1-sulfoazetidin-3-yl)amino)-2-oxoethylidene)amino)oxy)-2-methylpropanoic acid]
MIC (E. coli containing KPC-2): 2 µg/mL (≈ 3.87 µM)
MIC (E. coli strain 25922): 8 µg/mL (≈ 15.5 µM)

CC(C)(O/N=C(\C(=O)N[C@@H]1C(=O)N(S(=O)(=O)O)[C@@H]1Cn1ncc(CNC=N)n1)c1csc(N)n1)C(=O)O [Example 62, 2-(((Z)-(1-(2-aminothiazol-4-yl)-2-(((2R,3S)-2-((4-(formimidamidomethyl)-2H-1,2,3-triazol-2-yl)methyl)-4-oxo-1-sulfoazetidin-3-yl)amino)-2-oxoethylidene)amino)oxy)-2-methylpropanoic acid]
MIC (E. coli containing KPC-2): 2 µg/mL (≈ 3.58 µM)
MIC (E. coli strain 25922): 0.5 µg/mL (≈ 0.895 µM)

CC(C)(O/N=C(\C(=O)N[C@@H]1C(=O)N(S(=O)(=O)O)[C@@H]1CN1C[C@@H](CO)OC1=O)c1csc(N)n1)C(=O)O [Example 63, 2-(((Z)-(1-(2-aminothiazol-4-yl)-2-(((2R,3S)-2-(((S)-5-(hydroxymethyl)-2-oxooxazolidin-3-yl)methyl)-4-oxo-1-sulfoazetidin-3-yl)amino)-2-oxoethylidene)amino)oxy)-2-methylpropanoic acid]
MIC (E. coli containing KPC-2): 32 µg/mL (≈ 58.1 µM)
MIC (E. coli strain 25922): 32 µg/mL (≈ 58.1 µM)

N=C(NC1CCNCC1)c1ccc(OC[C@H](O/N=C(\C(=O)N[C@@H]2C(=O)N(S(=O)(=O)O)[C@@H]2CN2CCOC2=O)c2csc(N)n2)C(=O)O)cc1 [Example 64, (S)-2-(((Z)-(1-(2-aminothiazol-4-yl)-2-oxo-2-(((3S,4R)-2-oxo-4-((2-oxooxazolidin-3-yl)methyl)-1-sulfoazetidin-3-yl)amino)ethylidene)amino)oxy)-3-(4-(N-(piperidin-4-yl)carbamimidoyl)phenoxy)propanoic acid]
MIC (E. coli containing KPC-2): 0.25 µg/mL (≈ 0.345 µM)
MIC (E. coli strain 25922): 0.5 µg/mL (≈ 0.691 µM)

CC(C)(O/N=C(\C(=O)N[C@@H]1C(=O)N(S(=O)(=O)O)[C@@H]1Cn1ncc(CNS(N)(=O)=O)n1)c1csc(N)n1)C(=O)O [Example 65, 2-(((Z)-(1-(2-aminothiazol-4-yl)-2-oxo-2-(((3S,4R)-2-oxo-4-((4-((sulfamoylamino)methyl)-2H-1,2,3-triazol-2-yl)methyl)-1-sulfoazetidin-3-yl)amino)ethylidene)amino)oxy)-2-methylpropanoic acid]
MIC (E. coli containing KPC-2): 64 µg/mL (≈ 105 µM)
MIC (E. coli strain 25922): 64 µg/mL (≈ 105 µM)

N=C(NCCN)c1ccc(OC[C@H](O/N=C(\C(=O)N[C@@H]2C(=O)N(S(=O)(=O)O)[C@@H]2Cn2ncc(CN)n2)c2csc(N)n2)C(=O)O)cc1 [Example 66, (S)-3-(4-(N-(2-aminoethyl)carbamimidoyl)phenoxy)-2-(((Z)-(2-(((2R,3S)-2-((4-(aminomethyl)-2H-1,2,3-triazol-2-yl)methyl)-4-oxo-1-sulfoazetidin-3-yl)amino)-1-(2-aminothiazol-4-yl)-2-oxoethylidene)amino)oxy)propanoic acid]
MIC (E. coli containing KPC-2): 2 µg/mL (≈ 2.88 µM)
MIC (E. coli strain 25922): 1 µg/mL (≈ 1.44 µM)

N=C(NCCN)c1ccc(OC[C@H](O/N=C(\C(=O)N[C@@H]2C(=O)N(S(=O)(=O)O)[C@@H]2Cn2cncn2)c2csc(N)n2)C(=O)O)cc1 [Example 67, (S)-2-(((Z)-(2-(((2R,3S)-2-((1H-1,2,4-triazol-1-yl)methyl)-4-oxo-1-sulfoazetidin-3-yl)amino)-1-(2-aminothiazol-4-yl)-2-oxoethylidene)amino)oxy)-3-(4-(N-(2-aminoethyl)carbamimidoyl)phenoxy)propanoic acid]
MIC (E. coli containing KPC-2): 0.125 µg/mL (≈ 0.188 µM)
MIC (E. coli strain 25922): 0.25 µg/mL (≈ 0.376 µM)

N=C(NC1CNC1)c1ccc(OC[C@H](O/N=C(\C(=O)N[C@@H]2C(=O)N(S(=O)(=O)O)[C@@H]2Cn2cncn2)c2csc(N)n2)C(=O)O)cc1 [Example 68, (S)-2-(((Z)-(2-(((2R,3S)-2-((1H-1,2,4-triazol-1-yl)methyl)-4-oxo-1-sulfoazetidin-3-yl)amino)-1-(2-aminothiazol-4-yl)-2-oxoethylidene)amino)oxy)-3-(4-(N-(azetidin-3-yl)carbamimidoyl)phenoxy)propanoic acid]
MIC (E. coli containing KPC-2): 0.25 µg/mL (≈ 0.369 µM)
MIC (E. coli strain 25922): 0.25 µg/mL (≈ 0.369 µM)
